What all share (experiment): DTP human tumour cell line panel, 48 h
Assay [1] relates to A549 NSCLC.
Assay [2] has as its system MDA-MB-231 breast.
Assay [3] relates to HOP-92 NSCLC.
For assay [4], the system named is KM12 colon.
Assay [5] concerns MOLT-4 leukemia.
For assay [6], the system named is OVCAR-4 ovarian.
Assay [7] deals with U251 CNS.
The test system of assay [8] is UACC-257 melanoma.
Assay [9] concerns CCRF-CEM leukemia.

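Following 48 hours of exposure in 96-well plates, responses at five concentrations were used to interpolate endpoints linearly. GI50: concentration for 50% inhibition of growth. TGI: concentration producing complete growth inhibition.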 Where a SMILES comes first, the peptide text is derived from it. Bridges are numbered along the chain shown (N, C = ends).

As to `CCOC(=O)C1=C(N2CCCC2)C(=O)C(C(=O)OCC)C1` (stereo not given), the TGI in assay [1], in assay [2], in [3], in assay [4], in [5] and in assay [6] was more than 100 µM throughout. For the same molecule, the total growth inhibition concentration (TGI) in assay [7] and in assay [8] was more than 100 µM throughout.

As to `CC(=O)OC1C2CCC3CC2C2(SCCS2)C31` (stereo not given), the TGI in [1], in [2], in assay [3], in [4], in assay [5] and in assay [6] was more than 100 µM in each case. Besides, the TGI in assay [7] and in assay [8] was more than 100 µM each time.

`Cc1cccc(NC(=S)Nc2cccc(Cl)c2)n1`: the concentration for total growth inhibition (TGI) in assay [1], in assay [9], in [2], in assay [4], in assay [5] and in assay [6] was more than 100 µM in each case. Further, the total growth inhibition concentration (TGI) in assay [7] and in assay [8] was more than 100 µM in each case.

As to `COc1ccc(NCn2nc(CCCCCCCCc3nn(CNc4ccc(OC)cc4)c(=S)o3)oc2=S)cc1`, the TGI in assay [1], in assay [2], in assay [3], in assay [4], in assay [5] and in [6] was more than 100 µM each time. The TGI in [7] and in [8] was more than 100 µM in each case.

Regarding `COc1cccc(C2C(C#N)=C(N)Oc3cc(OCCCCCC[P+](c4ccccc4)(c4ccccc4)c4ccccc4)ccc32)c1` (stereo not given), the GI50 is 1.53 µM in assay [1]; 0.596 µM in assay [9]; 0.23 µM in assay [3]; 0.433 µM in assay [4]; 1.22 µM in [5]; 0.384 µM in [6]. Moreover, the TGI in assay [1] is 4.51 µM; in assay [9], 3.36 µM; in assay [3], 0.912 µM; in assay [4], 1.58 µM; in [5], 3.96 µM; in [6], 1.51 µM.

Take `CC(C)(C)N=C1C(=O)C2(C)CCC1C2(C)C` (stereo not given): the TGI in assay [1], in assay [2], in assay [4], in [6], in [7] and in [8] was more than 100 µM each time.

`Oc1c(NCn2nc(CCCCCCCCc3nn(CNc4ccc5ccccc5c4O)c(=S)o3)oc2=S)ccc2ccccc12`: the TGI in assay [1], in assay [2], in assay [3], in assay [4], in [5] and in assay [6] was more than 100 µM throughout. In addition, the concentration for total growth inhibition (TGI) in assay [7] and in [8] was more than 100 µM each time.

Take `CCC1OC2(C)CC(C#N)(C#N)C1(C#N)C(=N)O2` (stereo not given): the total growth inhibition concentration (TGI) in assay [1], in assay [9], in assay [2], in [3], in [4] and in assay [5] was more than 100 µM in each case. For the same molecule, the TGI in [7] and in assay [8] was more than 100 µM each time.

Take `CC1(C)CC(=O)C2=C(C1)NC(=S)C(C#N)C2c1ccccc1` (stereo not given): the TGI in assay [1], in assay [9], in assay [2], in assay [3], in [6] and in assay [7] was more than 100 µM each time. This molecule gave a TGI in assay [8] of more than 100 µM.

As for `COC(=O)C1CCC(=O)NCCCCC(NC(=O)C(N)CC(=O)O)C(=O)N1` (stereo not drawn) (H-Asp-Lys-Glu-OMe; lactam 2-3; configuration not given here), the TGI in assay [1], in assay [9], in assay [2], in assay [4], in assay [5] and in assay [6] was more than 100 µM in each case. Besides, the concentration for total growth inhibition (TGI) in assay [7] and in assay [8] was more than 100 µM throughout.

Turning to `O=C1OC2(CCCCC2)C(Oc2ccc(Cl)cc2)=C1F`, the TGI in assay [1] was more than 100 µM; in assay [9], 86.1 µM; in assay [2] it was more than 100 µM; in assay [3] it was 82.5 µM; in assay [4], more than 100 µM; in [5] it was 48.5 µM. Further, the total growth inhibition concentration (TGI) is more than 100 µM in assay [7] and 66.8 µM in assay [8].

For `CC(=O)N1CCOC12N=NC(C)(C)O2` (stereo not given), the total growth inhibition concentration (TGI) in [1], in [2], in [3], in [4], in assay [5] and in assay [6] was more than 100 µM throughout. For the same molecule, the total growth inhibition concentration (TGI) in [7] and in assay [8] was more than 100 µM each time.

Regarding `C(=Nc1ccc(-c2nc3ccccc3s2)cc1)c1cccs1`, the concentration for total growth inhibition (TGI) was more than 100 µM in [1]; 3.76 µM in assay [9]; 90.7 µM in [3]; more than 100 µM in [4]; more than 100 µM in [5]; more than 100 µM in assay [6]. Besides, the TGI in assay [7] and in assay [8] was more than 100 µM throughout.

On to `COc1ccc(/C=C/C(=O)c2cc(CN(C)C)c(O)c(CN(C)C)c2)cc1`, for which the TGI was more than 100 µM in assay [1]; more than 100 µM in [9]; 69.6 µM in [2]; 37.4 µM in assay [4]; more than 100 µM in assay [5]; more than 100 µM in assay [7]. The molecule also had a total growth inhibition concentration (TGI) in [8] of 38.8 µM.

Take `COc1ccc(Cn2c(=O)c(OS(=O)(=O)C(F)(F)F)c(C)c3cc4ccccc4cc32)cc1`: the TGI in [1], in assay [9], in assay [2], in assay [4], in assay [5] and in assay [6] was more than 100 µM throughout. For the same molecule, the TGI in [7] and in assay [8] was more than 100 µM each time.

Regarding `O=C(NCc1cn(Cc2cccc(Oc3ccccc3)c2)nn1)c1cccnc1NCc1ccc(Cl)cc1`, the GI50 was 3.21 µM in [1]; 3.05 µM in [9]; 2.29 µM in assay [2]; 3.62 µM in assay [4]; 3.28 µM in assay [5]; 3.37 µM in assay [6]. Besides, the GI50 was 2.66 µM in assay [7] and 3.83 µM in assay [8]. For the same molecule, the concentration for total growth inhibition (TGI) is more than 100 µM in assay [1]; more than 100 µM in assay [9]; 6.14 µM in assay [2]; more than 100 µM in [4]; 8.76 µM in assay [5]; more than 100 µM in assay [6]. Further, the TGI in assay [7] was 8.7 µM; in [8] it was more than 100 µM.

Take `C=CCCCN(C(=O)c1ccccc1)c1ccc(C(=O)OC)o1`: the concentration for total growth inhibition (TGI) in [1], in assay [2], in [3], in assay [4], in assay [5] and in assay [6] was more than 100 µM each time. This molecule also had a TGI in assay [8] of more than 100 µM.

As for `O=c1[nH]c(=S)[nH]c2c1CCCN2`, the TGI in assay [1], in assay [9], in [3], in assay [4], in assay [5] and in [7] was more than 100 µM in each case. In addition, the concentration for total growth inhibition (TGI) in [8] was more than 100 µM.

In the case of `O=C(Oc1cncc(Cl)c1)c1cc2ccccc2sc1=O`, the TGI in [1] is more than 100 µM; in assay [2] it was more than 100 µM; in [3] it was more than 100 µM; in assay [4], more than 100 µM; in assay [5] it was 90 µM; in [6], more than 100 µM. Also, the concentration for total growth inhibition (TGI) in [7] and in assay [8] was more than 100 µM each time.

On to `COc1cc(/C=C2\N=C(c3ccccc3)N(c3cc4cc(Sc5ccccc5)ccc4[nH]3)C2=O)ccc1O`, for which the TGI in assay [1], in assay [9], in [3], in assay [4], in assay [5] and in [6] was more than 50 µM each time. Further, the TGI in assay [8] is more than 50 µM.

As to `Cc1ccc(N=Nc2c(O)ccc3ccccc23)c(C)c1`, the total growth inhibition concentration (TGI) in assay [1], in assay [2], in assay [3], in [4], in assay [5] and in assay [6] was more than 100 µM in each case. The concentration for total growth inhibition (TGI) in assay [7] and in [8] was more than 100 µM in each case.

With `CN(C)Cc1cc(/C=C/C(=O)c2ccc(Br)cc2)cc(CN(C)C)c1O`, the TGI is more than 100 µM in [1]; 25.4 µM in assay [9]; 40 µM in [2]; 29.6 µM in [4]; 42.9 µM in assay [5]; 33.7 µM in [8].

On to `Cc1cc2ccccc2n2c1nc1ccc(O)cc12`, for which the total growth inhibition concentration (TGI) in assay [1], in [9], in [2], in assay [4], in assay [5] and in assay [6] was more than 10 µM in each case. The TGI in [7] and in [8] was more than 10 µM each time.

As to `O=C(NNC(=O)c1ccncc1)C(=O)Nc1cc(Cl)c(Cl)cc1Cl`, the TGI in assay [1], in [2], in assay [3], in assay [4], in [5] and in assay [6] was more than 100 µM in each case. The TGI in assay [7] and in [8] was more than 100 µM each time.
